{"source": "patent EP2608671B1", "about": "“COMPOUNDS FOR TREATMENT OF CANCER” (Gtx, Inc., priority 2010, dated 2012)", "key": {"PC-3 cells": {"system": "PC-3 cells", "test": "In vivo drug resistance study (cells dissociated from PC-3 xenografts)", "type": "cell-based", "settings": "Homo sapiens"}, "DU 145": {"system": "DU 145", "test": "cells", "settings": "Homo sapiens, DU-145, 96 h, read-out: IC50 ± SEM (nM), DU 145"}, "[1]": {"test": "Rotarod test (in vivo neurotoxicity)", "settings": "mouse"}, "A375": {"system": "A375", "test": "SRB cell growth inhibition (cytotoxicity) assay", "type": "cell-based, human", "settings": "Homo sapiens"}, "LNCaP": {"system": "LNCaP", "test": "cells", "settings": "Homo sapiens, 96 h, read-out: IC50 ± SEM (nM), LNCaP"}, "B16-F1": {"system": "B16-F1", "test": "SRB cell growth inhibition (cytotoxicity) assay", "type": "cell-based, mouse", "settings": "Mus musculus, B16-F1, SRB assay; Tables 1, 2, 3, 5B, 5C; read-out: IC50 ± SEM (nM), B16-F1", "source_text": "(§1) The only compounds which belong to the invention are the ones falling under the scope of formula (XI)."}, "WM-164": {"system": "WM-164", "test": "SRB cell growth inhibition (cytotoxicity) assay", "type": "cell-based, human", "settings": "Homo sapiens"}, "PC-3": {"system": "PC-3", "test": "cells", "source_text": "as §1\nCells were stained with SRB solution.\nCells. […] Cells between the third and fifth passages were used for experiments.\nCell growth inhibition studies. […] Cells were stained with sulphorhodamine B (SRB) solution."}, "[2]": {"system": "PC-3 prostate tumor xenograft", "test": "In vivo antitumor efficacy, PC-3 xenograft", "set-up": "species or system mouse", "settings": "control 680 mm^3", "source_text": "(§2) PC-3 and A375 tumor xenograft studies.\n(§3) In vivo antitumor activity [tumor growth inhibition (% T/C), tumor growth delay (T-C value), and tumor cell kill (total log cell kill)]."}, "in vivo": {"test": "in vivo", "settings": "mouse, ip"}, "PPC-1": {"system": "PPC-1", "test": "cells", "settings": "Homo sapiens, PPC-1, 96 h, read-out: IC50 ± SEM (nM), PPC-1"}, "[3]": {"system": "tubulin (colchicine, vinblastine and paclitaxel binding sites)", "test": "MS competitive binding assay", "source_text": "MS competition binding assay. […] Each reaction was run in triplicate."}, "[4]": {"system": "A375 human melanoma xenograft", "test": "In vivo antitumor efficacy, A375 melanoma xenograft", "set-up": "species or system mouse", "settings": "2k 15 mg/kg i.p.", "protocol": "DTIC at 60 mg/kg was used as a positive control again.\nas §2, §3"}, "Bovine brain tubulin": {"system": "Bovine brain tubulin", "test": "In vitro tubulin polymerization assay", "type": "biochemical", "settings": "10 µM", "source_text": "(§4) In Vitro Tubulin Polymerization Assay.\nas §4\nIn vitro microtubule polymerization assay."}, "OVCAR-8": {"system": "OVCAR-8", "test": "SRB growth inhibition, MDR model parent line", "type": "cell-based, human", "settings": "Homo sapiens, OVCAR-8"}, "MDA-MB-435/LCC6MDR1": {"system": "MDA-MB-435/LCC6MDR1", "test": "SRB growth inhibition, multidrug-resistant melanoma line", "type": "cell-based", "settings": "MDA-MB-435/LCC6 MDR1; MDR1 overexpressed, n=3; read-out: IC50 ± SEM (nmol/L) MDA-MB-435/LCC6MDR1"}, "MRP": {"system": "MRP", "test": "Growth inhibition in MRP-mediated resistant cells (Table 14B)", "type": "cell-based", "settings": "n=3"}, "WM-164 melanoma cells": {"system": "WM-164 melanoma cells", "test": "Microtubule imaging (immunofluorescence)", "type": "cell-based, human", "settings": "18 h treatment", "source_text": "Primary antibody for tubulin and fluorescence-labeled secondary antibody were subsequently added to the cells. Cell nuclei were stained by DAPI. Whole Cell Stain Green was also applied to all cells. All images were acquired with an Olympus IX71 inverted fluorescence microscope (Olympus Corp., Tokyo, Japan) with overlays from separate images of tubulin (red), nuclei (blue), and whole cells (green)."}, "NCI/ADR-RES": {"system": "NCI/ADR-RES", "test": "SRB growth inhibition, P-gp over-expressing MDR line", "type": "cell-based, human", "settings": "Homo sapiens, NCI/ADR-RES; MDR1 overexpressed, n=3; read-out: IC50 ± SEM (nmol/L) NCI/ADR-RES"}, "MDA-MB-435": {"system": "MDA-MB-435", "test": "SRB growth inhibition, sensitive parent melanoma line", "type": "cell-based", "settings": "Homo sapiens, MDA-MB-435; parental cell line, n=3; read-out: IC50 ± SEM (nmol/L) MDA-MB-435"}, "[5]": {"system": "cancer and MDR cell lines with different resistance mechanisms", "test": "Growth inhibition in other cancer and MDR cell lines of Table 14B", "type": "cell-based", "settings": "n=3"}, "T47D": {"system": "T47D", "type": "cell-based, human"}, "HUVEC monolayers": {"system": "HUVEC monolayers", "test": "Endothelial monolayer permeability assay", "type": "cell-based, human", "settings": "leakage of dextran after 1, 2, 4 h"}, "[6]": {"system": "HUVECs (Human Umbilical Vein Endothelial Cells)", "type": "cell-based"}, "CaCO-2": {"system": "CaCO-2", "settings": "human"}, "[7]": {"settings": "rat, IV, […] (1h, 2r), 5 mg/kg (5Ha, 5Hc)"}}, "note": "Where two headings read alike, the source gives them in different places.", "data": [{"smiles": "COc1cc(C(=O)c2csc(-c3ccccc3)n2)cc(OC)c1OC", "note": "[1h, (2-Phenyl-thiazol-4-yl)-(3,4,5-trimethoxy-phenyl)-methanone]", "values": [{"measurement": "IC50", "setting": "PC-3 cells; PC-3, PC-3 cells from ATCC", "value": "0.0291 ± 0.0011", "unit": "µM"}, {"measurement": "IC50", "setting": "PC-3 cells; PC-3, dissociated cells from 1h treated tumors (15 mg/kg, 21 days)", "value": "0.0304 ± 0.0005", "unit": "µM"}, {"measurement": "IC50", "setting": "PC-3 cells; PC-3, dissociated cells from vehicle treated tumors", "value": "0.0291 ± 0.0008", "unit": "µM"}, {"measurement": "IC50", "setting": "DU 145", "value": "71 ± 4", "unit": "nM"}, {"measurement": "time on the rotating rod versus vehicle group", "setting": "[1]", "value": "no significant difference"}, {"measurement": "IC50", "setting": "A375; A-375, 96 h, SRB assay, 96 h, Tables 1, 2, 3, 5B, 5C, read-out: IC50 ± SEM (nM), A375", "value": "28 ± 5", "unit": "nM"}, {"measurement": "IC50", "setting": "LNCaP", "value": "28 ± 4", "unit": "nM"}, {"measurement": "RatPK_IV5mgk_Cl", "setting": "rat, IV, 2.5mpk", "value": "7.7 (2.5mpk) mL/min/kg"}, {"measurement": "CL (mL/min/kg), systemic clearance", "setting": "[7]", "value": "7.7 ± 1.0", "unit": "mL/min/kg"}, {"measurement": "Vss (L/kg), volume of distribution", "setting": "[7]", "value": "4.9 ± 1.9", "unit": "L/kg"}, {"measurement": "volume of distribution", "setting": "rats, […] iv", "value": 7.6, "unit": "L/kg"}, {"measurement": "clearance", "setting": "rats, […] iv, Table 22", "value": 6, "unit": "mL/min/kg"}, {"measurement": "IC50", "setting": "B16-F1", "value": "55 ± 5", "unit": "nM"}, {"measurement": "IC50", "setting": "WM-164; WM164, 96 h, SRB assay, 96 h, Table 2, read-out: IC50 ± SEM (nM), WM-164", "value": "64 ± 4", "unit": "nM"}, {"measurement": "IC50", "setting": "PC-3; Homo sapiens, PC-3, 96 h, read-out: IC50 ± SEM (nM), PC-3", "value": "21 ± 1", "unit": "nM"}, {"measurement": "Tumor volume by day 21", "setting": "[2]; PC-3, 5 mg/kg i.p.", "value": 370, "unit": "mm^3"}, {"measurement": "Tumor volume by day 21", "setting": "[2]; PC-3, 15 mg/kg i.p.", "value": 176, "unit": "mm^3"}, {"measurement": "MTD at 96 h", "setting": "in vivo", "value": "≥ 30", "unit": "mg/kg"}, {"measurement": "IC50", "setting": "PPC-1", "value": "43 ± 5", "unit": "nM"}, {"measurement": "competition for tubulin binding sites", "setting": "[3]", "value": "specifically competed with colchicine binding to tubulin"}, {"measurement": "% T/C", "setting": "[4]; A375, 1h 20 mg/kg", "value": 28, "unit": "%"}, {"measurement": "tumor volume", "setting": "[4]; A375, nude mice, 1h 20 mg/kg, 34 days, control 2183 mm^3", "value": 775, "unit": "mm^3"}, {"measurement": "inhibited tubulin polymerization", "setting": "Bovine brain tubulin; 15 min, Figure 28B", "value": 90, "unit": "%"}, {"measurement": "tubulin polymerization inhibited", "setting": "Bovine brain tubulin; 20 min incubation, compared to vehicle", "value": 47, "unit": "%"}, {"measurement": "IC50", "setting": "OVCAR-8; Table 5A, read-out: IC50 (nM), OVCAR-8", "value": "35 ± 2", "unit": "nM"}]}, {"smiles": "COc1ccc(S(=O)(=O)Nc2cccnc2Nc2ccc(O)cc2)cc1", "note": "[ABT-751]", "values": [{"measurement": "IC50", "setting": "A375; A-375, Table 14B, n=3, read-out: IC50 ± SEM (nmol/L) A375", "value": "685 ± 108", "unit": "nM"}, {"measurement": "IC50", "setting": "MDA-MB-435/LCC6MDR1", "value": "577 ± 31", "unit": "nmol/L"}, {"measurement": "IC50", "setting": "WM-164; WM164, read-out: IC50 ± SEM (nM) (n=3), WM-164, Table 14A", "value": "661 ± 56", "unit": "nM"}, {"measurement": "IC50", "setting": "WM-164; WM164, Table 14B, n=3, read-out: IC50 ± SEM (nmol/L) WM-164", "value": "661 ± 56", "unit": "nM"}, {"measurement": "IC50", "setting": "MRP; MRP1 overexpressed, read-out: IC50 ± SEM (nmol/L) HEK293-MRP1", "value": "717 ± 28", "unit": "nmol/L"}, {"measurement": "IC50", "setting": "MRP; MRP2 overexpressed, read-out: IC50 ± SEM (nmol/L) HEK293-MRP2", "value": "747 ± 7", "unit": "nmol/L"}, {"measurement": "effect on microtubules", "setting": "WM-164 melanoma cells", "value": "microtubule fragmentation"}, {"measurement": "IC50", "setting": "NCI/ADR-RES", "value": "864 ± 42", "unit": "nmol/L"}, {"measurement": "IC50", "setting": "MDA-MB-435", "value": "417 ± 23", "unit": "nmol/L"}, {"measurement": "IC50", "setting": "[5]; A375MA2 cells, read-out: IC50 ± SEM (nmol/L) A375MA2", "value": "265 ± 36", "unit": "nmol/L"}, {"measurement": "IC50", "setting": "[5]; Homo sapiens, HEK293-pcDNA3.1 parental cell line, read-out: IC50 ± SEM (nmol/L) HEK293 - pcDNA3.1", "value": "645 ± 153", "unit": "nmol/L"}, {"measurement": "IC50", "setting": "OVCAR-8; parental cell line, n=3, read-out: IC50 ± SEM (nmol/L) OVCAR-8", "value": "785 ± 17", "unit": "nM"}]}, {"smiles": "COc1cccc2c1C(=O)c1c(O)c3c(c(O)c1C2=O)C[C@@](O)(C(=O)CO)C[C@@H]3O[C@H]1C[C@H](N)[C@H](O)[C@H](C)O1", "note": "[Doxorubicin]", "values": [{"measurement": "IC50", "setting": "T47D", "value": 0.353, "unit": "µM"}, {"measurement": "permeability of endothelial cell monolayer", "setting": "HUVEC monolayers", "value": "did not induce any change"}, {"measurement": "times more active against endothelial cells than against cancer cells", "setting": "[6]; Table 24", "value": "not specific to endothelial cells"}, {"measurement": "Selectivity ratio*, cancer cells/ HUVEC", "setting": "[6]; mean IC50 in PC3 and T47D cells over HUVEC", "value": 1.4}, {"measurement": "IC50", "setting": "[6]; read-out: IC50 HUVEC", "value": 0.274, "unit": "µM"}, {"measurement": "IC50", "setting": "PC-3; read-out: IC50 PC3", "value": 397, "unit": "nM"}]}, {"smiles": "CC(C)NCC(O)COc1cccc2ccccc12", "note": "(centres unmarked) [Propranolol]", "values": [{"measurement": "Papp(A→B) in CaCO-2 assay", "setting": "CaCO-2", "value": "Propranolol (19) 10^-6 cm/s"}]}]}
